In patent US7666644B2, “Glyphosate-N-acetyltransferase (GAT) genes” (Verdia, Inc., priority 2004, dated 2010):

What was measured:
[1] = target: non-native GAT polypeptide 25-8H7 (glyphosate-N-acetyltransferase), SEQ ID NO: 907 (Bacillus licheniformis, UniProt Q65LG7, E119R/E14D/E65Q/E67K/E68K/G37R/G38S/I132T/I135V/I15L/I19V/I53V/I91V/K101R/K144R/K58Q/L105M/L106I/L145I/L26I/L36T/L97I/M75V/R47G/R92K/T33S/T89S/V114A/Y130F/Y31F/Y45F); test: GAT activity with respect to glyphosate, aspartate and serine (Example 29, Table 21); conditions: 25 mM Hepes, pH 6.8, 10% ethylene glycol
Chain of non-native GAT polypeptide 25-8H7 (glyphosate-N-acetyltransferase), SEQ ID NO: 907 (Q65LG7 entry or part of it with the stated changes): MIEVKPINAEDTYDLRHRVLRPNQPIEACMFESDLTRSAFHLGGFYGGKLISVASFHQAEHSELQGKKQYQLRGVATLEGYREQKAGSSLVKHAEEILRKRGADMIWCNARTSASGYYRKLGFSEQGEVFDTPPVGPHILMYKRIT

[2] = system: GAT polypeptide (glyphosate-N-acetyltransferase), SEQ ID NO:445; test: Standard spectrophotometric kcat and KM determination (Example 7); type: biochemical; conditions: 20 mM HEPES pH 6.8, 10% ethylene glycol, 0.2 mM acetyl CoA, about 23° C.
Experimental: (§1) KM was calculated from the initial reaction rates obtained from concentrations of glyphosate ranging from 0.125 to 10 mM, using the Lineweaver-Burke transformation of the Michaelis-Menten equation. kcat/KM was determined by dividing the value determined for kcat by the value determined for KM.

[3] = system: native or low activity GAT enzymes (glyphosate-N-acetyltransferase); test: Kinetics typical of native or low activity GAT enzymes (Example 4); type: biochemical
[4] = system: GAT 20-30C6 (SEQ ID NO: 683) variant H138S; test: GAT kinetics, 0 KCl, Bradford (Example 20, Table 12); type: biochemical; conditions: Bradford protein assay
[5] = system: high activity GAT enzymes (glyphosate-N-acetyltransferase); test: Kinetics typical of high activity GAT enzymes (Example 5); type: biochemical
[6] = target: T1, Bacillus licheniformis strain B6 glyphosate-N-acetyltransferase (GAT), native, SEQ ID NO:7 (Bacillus paralicheniformis, UniProt A0AAW6KBE1); test: Apparent KM and kcat of purified GAT (Example 2); type: biochemical
T1 construct: untagged
Experimental: Lysis of the cells was effected by the addition of 1 ml of the following buffer to 0.2 g of cells: 25 mM HEPES, pH 7.3, 100 mM KCl and 10% methanol (HKM) plus 0.1 mM EDTA, 1 mM DTT, 1 mg/ml chicken egg lysozyme, and a protease inhibitor cocktail obtained from Sigma and used according to the manufacturer's recommendations. After 20 minutes incubation at room temperature (e.g., 22-25° C.), lysis was completed with brief sonication. The lysate was centrifuged and the supernatant was desalted by passage through Sephadex G25 equilibrated with HKM. Partial purification was obtained by affinity chromatography on CoA Agarose (Sigma). The column was equilibrated with HKM and the clarified extract was allowed to pass through under hydrostatic pressure.
Purification to homogeneity was obtained by gel filtration of the partially purified protein through Superdex 75 (Pharmacia).
Initial reaction rates were determined using mass spectrometric detection of N-acetyl glyphosate. Five μl were repeatedly injected into the instrument and reaction rates were obtained by plotting reaction time vs area of the integrated peak (FIG. 6).

[7] = system: GAT 20-30C6 (SEQ ID NO: 683) variant D34A; test: GAT kinetics, 0 KCl, Bradford (Example 20, Table 12); type: biochemical; conditions: Bradford protein assay
Experimental: as §1
(§2) The amino acids aspartic acid (Asp, D), histidine (His, H) and cysteine (Cys, C) are known to be associated with the active sites of various acetyltransferase enzymes. To determine if any such residues play a role in GAT activity, all D, C, and H residues of GAT20-30C6 (SEQ ID NO:683) were individually mutated to alanine (Ala, A) and the mutated enzymes assayed for N-acetylglyphosate activity.

[8] = system: GAT 20-30C6 (evolved glyphosate-N-acetyltransferase), SEQ ID NO: 683; test: as above; type: biochemical; conditions: Bradford protein assay
Experimental: as §1, §2

[9] = system: GAT 20-30C6 (SEQ ID NO: 683) variant H138A; test: as above; type: biochemical; conditions: Bradford protein assay
Experimental: as §1, §2

[10] = system: GAT 20-30C6 (SEQ ID NO: 683) variant H41A; test: as above; type: biochemical; conditions: Bradford protein assay
Experimental: as §1, §2

[11] = system: GAT 20-30C6 (SEQ ID NO: 683) variant H138R; test: as above; type: biochemical; conditions: Bradford protein assay
Experimental: as §1, §2

[12] = Kinetics of D, C, H residue mutants of GAT20-30C6; type: biochemical; conditions: 0 KCl; Bradford protein assay
Description: as §2

[13] = Transfer of the propionyl group from propionyl CoA to glyphosate, DTNB detection; type: biochemical; conditions: 1 mM propionyl CoA, 5 mM glyphosate or no glyphosate, 30 minutes
Experimental: The ability of GAT variants (B6 (SEQ ID NO:7), 0—6D10 (SEQ ID NO:448), 17-15H3 (SEQ ID NO:601), and 20-8H12c (SEQ ID NO:817)) to transfer the propionyl group from propionyl CoA to glyphosate was tested in reaction mixtures containing 5 mM glyphosate or no glyphosate. Propionyl CoA was present at 1 mM. After 30 minutes the reactions were terminated and the presence of free […] was determined by the addition of DTNB.

[14] = GAT activity with substrate phospho-L-serine (DTNB); type: biochemical
Experimental: GAT activity of several GAT polypeptides of the present invention was evaluated with respect to a number of amino acid substrates. The GAT polypeptide, AcCoA and amino substrate were incubated in 25 mM Hepes, pH 6.8, 10% ethylene glycol in the wells of a 96-well polystyrene plate. After 30 minutes, the reactions were stopped by the addition of 30 μl of 10 mM 5,5′-dithiobis-2-nitrobenzoate (DTNB) in 500 mM Tris, pH 7.5. After 2 minutes, absorbance was read at 412 nm in a Spectramax Plus plate reader (Molecular Devices, Sunnyvale, Calif.).

Molecule: N[C@@H](CO)C(=O)O [Serine, L-serine]
- kcat ± SE [1]: 6.47 ± 0.308 s⁻¹

Molecule: O=C(O)CNCP(=O)(O)O [glyphosate, N-phosphonomethylglycine]
- Km [2]: 500 µM
- kcat [2]: 5.37 s⁻¹
- kcat [3]: approximately 1 min^−1
- Km ([3]; read-out: KM for glyphosate): 1500 to 10000 µM
- Km [4]: 7100 µM
- kcat [4]: 0.0892 s⁻¹
- Km [5]: < 100 µM
- kcat [5]: up to 400 min^−1
- kcat ([6]; from Vmax at known enzyme concentration, 5 mM glyphosate, varying Acetyl CoA): 0.1 s⁻¹
- Km ([6]; read-out: KM for glyphosate, apparent, saturating (200 μM) Acetyl CoA, 5 mM morpholine pH 7.7, 20% ethylene glycol): 2900 ± 200 µM
- Km [7]: 2330 µM
- kcat [7]: 2.12 s⁻¹
- Km [8]: 182 µM
- kcat [8]: 6.43 s⁻¹
- kcat [9]: <0.00033 s⁻¹
- Km [10]: 4800 µM
- kcat [10]: 3.47 s⁻¹
- Km [11]: 17800 µM
- kcat [11]: 0.738 s⁻¹

B1: 20-30C6: evolved GAT enzyme, SEQ ID NO:683 (protein)
chain: MIEVKPINAEDTYELRHRVLRPNQPIEACMFESDLLRGAFHLGGFYGGKLISVASFHQAEHTELQGQKQYQLRGVATLEGYREQKAGSSLVKHAEEILRKRGADILWCNARTSASGYYKKLGFSEQGEVFDTPPVGPHILMYKRIT
modifications: D_GE002283_GAT20-30C6
- % kcat/Km of 20-30C6 [12]: 100%

B2: B6: native GAT enzyme isolated from B. licheniformis strain B6, SEQ ID NO:7 (protein)
chain: MIEVKPINAEDTYEIRHRILRPNQPLEACKYETDLLGGTFHLGGYYRDRLISIASFHQAEHSELEGQKQYQLRGMATLEGYREQKAGSTLIRHAEELLRKKGADLLWCNARTSVSGYYKKLGFSEQGGVYDIPPIGPHILMYKKLT
modifications: Unidentified microorganism derived from soil sample.; B6 GAT
- glyphosate-dependent hydrolysis of propionyl CoA [13]: showed glyphosate-dependent hydrolysis of propionyl CoA
- activity with phospho-L-serine compared with glyphosate [14]: about 2 times
